# According to the supplement of paper PMC13380429:
# ± gives the standard deviation of the averaged measurements.
# Key:
# Conditions in all cases: 72 h
# Caco-2 [1] = assay: cell viability relative to DMSO; higher = less toxic
# Calu-3 [2] = assay: as above
# HepG2 [3] = assay: as above
# U2OS [4] = assay: as above
# Vero E6 [5] = assay: as above
# Calu-3 [6] = assay: relative viability EC50 (midpoint between 100% and the lowest measured viability); higher = less toxic
# HepG2 [7] = assay: as above
# U2OS [8] = assay: as above
# Vero E6 [9] = assay: as above
# Caco-2 [10] = assay: drug sensitivity score (DSS) for viability; higher = more toxic; extreme values may be limits of the assay
# Calu-3 [11] = assay: as above
# HepG2 [12] = assay: as above
# U2OS [13] = assay: as above
# Vero E6 [14] = assay: as above
# Caco-2 [15] = assay: relative viability EC50 (midpoint between 100% and the lowest measured viability); higher = less toxic
Structure (SMILES),cell viability (Caco-2 [1]; 1 nM) [%],cell viability (Caco-2 [1]; 10 nM) [%],cell viability (Caco-2 [1]; 100 nM) [%],cell viability (Caco-2 [1]; 1000 nM) [%],cell viability (Caco-2 [1]; 10000 nM) [%],cell viability (Calu-3 [2]; 1 nM) [%],cell viability (Calu-3 [2]; 10 nM) [%],cell viability (Calu-3 [2]; 100 nM) [%],cell viability (Calu-3 [2]; 1000 nM) [%],cell viability (Calu-3 [2]; 10000 nM) [%],cell viability (HepG2 [3]; 1 nM) [%],cell viability (HepG2 [3]; 10 nM) [%],cell viability (HepG2 [3]; 100 nM) [%],cell viability (HepG2 [3]; 1000 nM) [%],cell viability (HepG2 [3]; 10000 nM) [%],cell viability (U2OS [4]; 1 nM) [%],cell viability (U2OS [4]; 10 nM) [%],cell viability (U2OS [4]; 100 nM) [%],cell viability (U2OS [4]; 1000 nM) [%],cell viability (U2OS [4]; 10000 nM) [%],cell viability (Vero E6 [5]; 1 nM) [%],cell viability (Vero E6 [5]; 10 nM) [%],cell viability (Vero E6 [5]; 100 nM) [%],cell viability (Vero E6 [5]; 1000 nM) [%],cell viability (Vero E6 [5]; 10000 nM) [%],relative viability EC50 (Calu-3 [6]) [µM],relative viability EC50 (HepG2 [7]) [µM],relative viability EC50 (U2OS [8]) [µM],relative viability EC50 (Vero E6 [9]) [µM],drug sensitivity score (Caco-2 [10]),drug sensitivity score (Calu-3 [11]),drug sensitivity score (HepG2 [12]),drug sensitivity score (U2OS [13]),drug sensitivity score (Vero E6 [14]),relative viability EC50 (Caco-2 [15]) [µM]
NCCCCN=C(N)N [agmatine],114,82.8,92.5,82.5,72.2,94.8,95.7,93.2,89.4,99.9,95.5,96.6,99.4,110,94.7,103,96.3,100,100,99.2,103,97.6,97.4,104,88.6,> 10,> 10,> 10,> 10,3.4,0,0,0,0,
CC(=O)Oc1ccc(C(c2ccc(OC(C)=O)cc2)c2ccccn2)cc1 [bisacodyl],92.8,84.9,107,80.5,60.3,111,105,102,99.2,88.2,98.3,99.5,104,95.1,100,101,102,100,89.9,87.3,99.6,94.1,97.1,95.7,80.7,> 10,> 10,> 10,> 10,4.4,0.1,0,0.6,1,
CO[C@@H](C(=O)N1Cc2[nH]nc(NC(=O)c3ccc(N4CCN(C)CC4)cc3)c2C1)c1ccccc1 [danusertib],94.7,95.4,94.9,82.9,71.7,89,93.8,77.1,76.9,52.9,93.4,95.9,78.3,55.8,42.6,99.6,103,93.9,74.8,31,104,101,104,98.6,84.2,,0.192,1.35,> 10,2.9,7.5,10.7,6.8,0.4,
Cc1cc(C)cc(NC(=O)Cc2ccc(OC(C)(C)C(=O)O)cc2)c1 [efaproxiral],,,,,,98.6,103,104,101,105,107,107,104,101,96.4,97.7,95.7,98.9,93.5,94.3,98.5,97.5,101,101,98.2,> 10,> 10,> 10,> 10,,0,0,0,0,
N#Cc1nn(-c2c(Cl)cc(C(F)(F)F)cc2Cl)c(N)c1[S+]([O-])C(F)(F)F (stereo unspecified) [fipronil],103,105,102,96.7,94.1,99.3,92,102,103,102,98.2,109,97.8,91.1,103,,,,,,106,102,99.2,101,102,> 10,> 10,,> 10,0,0,0,,0,> 10
CCCCN(CCCC)CCC(O)c1cc2c(Cl)cc(Cl)cc2c2cc(C(F)(F)F)ccc12 (stereo unspecified) [halofantrine],95,122,104,106,88.7,90.1,93.3,103,109,88.1,95.5,82.1,97.4,92.1,71.8,95.2,102,99.5,96.3,88,109,103,99.9,83.3,83.8,> 10,,> 10,> 10,0,0,2.1,0.2,1.9,> 10
COc1ccc(-c2cc(=O)c3c(OC)c(OC)c(OC)c(OC)c3o2)cc1OC [nobiletin],86.4,99.4,100,95.3,80.9,99.5,111,106,104,83.8,96.9,108,102,83.2,68.6,94.4,103,94,99.7,92.3,102,104,94.5,93.5,91.6,> 10,,> 10,> 10,1.1,0.2,3.4,0,0,> 10
CCC[C@H](N[C@@H](C)C(=O)N1[C@H](C(=O)O)C[C@@H]2CCCC[C@@H]21)C(=O)OCC [perindopril],107,99.9,94.4,101,99.5,97,86.8,93.1,90.1,102,99.1,105,95.8,97.2,92.4,,,,,,99.4,105,98.1,97.3,98.8,> 10,> 10,,> 10,0,0,0,,0,> 10
Cc1ccc(=O)n(-c2ccccc2)c1 [pirfenidone],99.3,93.6,102,99.7,100,103,95.3,107,103,109,91.7,100,106,98.8,104,,,,,,107,104,105,103,100,> 10,> 10,,> 10,0,0,0,,0,> 10
CC(C)(C)C(=O)OCOC(=O)[C@@H]1N2C(=O)[C@@H](NC(=O)[C@H](N)c3ccccc3)[C@H]2SC1(C)C [pivampicillin],,,,,,110,108,97.7,98.4,117,114,97.7,91.9,82,96.9,98.4,94,101,93.3,97.6,103,104,101,99.4,102,> 10,> 10,> 10,> 10,,0,0.2,0,0,
O=[N+]([O-])c1cn2c(n1)OC[C@@H](OCc1ccc(OC(F)(F)F)cc1)C2 [pretomanid],98.3,100,102,99.3,92.6,101,96.5,96.4,112,103,106,103,102,96.3,100,,,,,,111,97.6,103,95.8,102,> 10,> 10,,> 10,0,0,0,,0,> 10
O=C(O)CCn1c2c(c3ccccc31)C[C@H](NS(=O)(=O)c1ccc(F)cc1)CC2 [ramatroban],,,,,,92.4,97.7,94.1,104,101,104,95.6,103,93.6,110,100,98.4,95.8,101,104,98,95.7,92.4,97.4,104,> 10,> 10,> 10,> 10,,0,0,0,0,
C[C@@]1(C(=O)O)NCCc2cc(O)c(O)cc21 [salsolinol-1-carboxylic-acid],103,101,97.4,109,106,98.9,105,103,106,107,100,106,95,94.3,107,,,,,,100,95.2,94.8,92.2,104,> 10,> 10,,> 10,0,0,0,,0,> 10
CC1=C(/C=C/C(C)=C/C=C/C(C)=C/C(=O)O)C(C)(C)CCC1 [tretinoin],103 ± 8.2,102 ± 10,97.5 ± 1.4,101 ± 1.9,74.5 ± 18,106 ± 6.3,97.7 ± 1.7,106 ± 3.3,87.5 ± 2.5,85.4 ± 4.5,99.8 ± 2.9,102 ± 7,109.5 ± 0.64,101 ± 3.5,103 ± 6.5,98.8 ± 0.28,95.3 ± 4,94.3 ± 2.3,95.6 ± 0.57,90.7 ± 0.85,102 ± 5.2,101 ± 1.9,99.7 ± 3.3,98.3 ± 2.1,101 ± 1.9,> 10,> 10,> 10,> 10,0.9 ± 1.1,1.2 ± 0.28,0,0,0,
C[C@]12CC[C@H]3[C@@H](CC[C@@]45O[C@@H]4C(O)=C(C#N)C[C@]35C)[C@@H]1CC[C@@H]2O [trilostane],105,92.9,99.9,97.6,99.3,,,,,,,,,,,98.8,103,105,105,97.9,91.3,98.5,92.8,92.4,102,,,> 10,> 10,0,,,0,0,> 10
FC(F)(F)c1cccc(C2=CCN(CCc3ccc4ccccc4c3)CC2)c1 [xaliproden],106,88.6,89,104,107,109,105,95.5,109,95.9,,,,,,98.4,96.3,99.5,105,111,100,89.7,92.7,92.7,104,> 10,,> 10,> 10,0,0,,0,0,> 10
